# Experimental data reported in patent publication US20040097464A1, “Mixture of non-sulfated fucose-based oligosaccharides, a cosmetic or pharmaceutical composition comprising said mixture and its use in cosmetics or pharmacy” (priority 2000, published 2004).
# Tests used:
# Format in all cases: cell-based, human
# [1] = tested on: MMP-9; test: MMP activity of skin explants stimulated with hyaluronane (gelatin zymography), MMP-9; details: skin explants stimulated with 1 mg/ml of hyaluronane, 10 μg/ml
# Experimental: (§1) Skin explants from a skin of the belly of a person were cultivated in a DMEM medium without phenol red (GIBCO) under stirring at 37° C. for 48 hours with different treatments. The samples were treated with a concentration of 10 μg/ml.
# (§2) Gelatin, substrate of the MMP-s, was co-polymerized at final 1 mg/ml with a gel of polyacrylamide at 10%. The extracellular media from the cultures of skin explant were deposited on the top of the gel, the electrophoresis was carried out at 150 volts. The gels were then incubated in MMP buffer for 24 hours under stirring at 37° C. The gels were then colored with Coomassie blue, then uncolored with distilled water. The lise ranges corresponding to an MMP activity, appeared as white, while the background of the gel was blue. In function of the distance of migration of proteins, one could determine the molecular weights of the enzymes having digested the gelatin. The MMP activity was quantified by morphometric analysis with the aid of a Visiolab computer. […]
# (§3) The protocol of the studies was the same as that used for the study of the MMP activity of the non-stimulated skin explants, but with hyaluronane with a concentration of […] and the samples of oligosaccharides with a concentration of 10 μg/ml, added in the culture medium.
# [2] = tested on: MMP-2; test: MMP activity of non-stimulated skin explants (gelatin zymography), MMP-2; details: 10 μg/ml, 48 hours
# Experimental: as §1
# (§4) Extracellular medium-1 ml of medium
# (§5) Intracellular medium-explant ground with ultraturax in 1 ml of MMP buffer
# (§6) 0.1 M Tris-HCl, pH 7.5, 0.1 M NaCl, 10 mM CaCl2, 1 mM zinc acetate
# (§7) Gelatin, substrate of the MMP-s, was co-polymerized at final 1 mg/ml with a gel of polyacrylamide at 10%. The extracellular media from the cultures of skin explant were deposited on the top of the gel, the electrophoresis was carried out at 150 volts. The gels were then incubated in MMP buffer for 24 hours under stirring at 37° C. The gels were then colored with Coomassie blue, then uncolored with distilled water. The lise ranges corresponding to an MMP activity, appeared as white, while the background of the gel was blue. In function of the distance of migration of proteins, one could determine the molecular weights of the enzymes having digested the gelatin. The MMP activity was quantified by morphometric analysis with the aid of a Visiolab computer.
# [3] = tested on: MMP-2; test: MMP activity of non-stimulated skin fibroblasts in monolayer (zymography), expression of MMP-2; details: 10 μg/ml, 24 hours (section b.2 fibroblasts; title says skin explants)
# Description: (§8) Skin fibroblast from a skin of the belly of a person were cultivated until the 7th cellular passage in a DMEM Glutamax (GIBCO) medium containing 1% of antibiotics and of fungicide and 10% of fetal calf serum and were used for the experiment. The fibroblasts were inseminated on 6-well plates at a density of 5.10^4 cells per well. When at the confluence, the culture medium was replaced by a DMEM medium, without phenol red containing 0.1% of BSA and containing the different substances to be treated at a concentration of 10 μg/ml. After 24 hours of culture at 37° C. (5% (v/v) CO2, 95% (v/v) air) the samples were recovered.
# Extracellular medium−1 ml of medium+2 rinsings with 0.25 ml of PBS
# Intracellular medium−cellular carpet sonicated with 1 ml of MMP buffer
# MMP Buffer composition 0.1 M Tris-HCl, pH 7.5, 0.1 M NaCl, 10 mM CaCl2, 1 mM zinc acetate
# (§9) As in the case of the cultures of skin explants, the culture media of the fibroblasts were studied with zymography.
# (§10) When the fibroblasts are cultivated in monolayer, only the widely secreted MMP-2 is visible with a very low quantity of MMP-9, however, present.
# [4] = tested on: MMP-2; test: MMP activity of skin fibroblasts stimulated with 1 mg/ml hyaluronane (zymography), expression of MMP-2; details: 1 mg/ml of hyaluronane, 10 μg/ml, 24 hours (section b.2 fibroblasts; title says skin explants not stimulated)
# Description: as §8, §9
# a.2.2) MMP Activity of the Fibroblasts of Skin Stimulated with 1 mg/ml of Hyaluronane
# The protocol of the studies is the same as that used for the study of the MMP activity of the non-stimulated fibroblasts of skin, but with hyaluronane with a concentration of 1 mg/ml and the samples of oligosaccharides with a concentration of 10 μg/ml, added in the culture medium.
# as §10
# [5] = tested on: MMP-2; test: MMP activity of skin explants stimulated with hyaluronane (gelatin zymography), MMP-2; details: skin explants stimulated with 1 mg/ml of hyaluronane, 10 μg/ml
# Experimental: as §1, §2, §3
# [6] = tested on: MMP-9; test: MMP activity of non-stimulated skin explants (gelatin zymography), MMP-9; details: 10 μg/ml, 48 hours
# Experimental: as §1, §4, §5, §6, §7
compound,measurement,setting,value
"C[C@H](O)[C@@H](O)[C@@H](O)[C@H](O)C=O [Fucose, fucose]",Active/Inactive MMP-9 (active form/inactive form relationship of the enzyme),[1],3.54
same,% effectiveness: reduction of active/inactive relationship of MMP-9,[1]; vs control,50%
same,Active/Inactive MMP-2 (active form/inactive form relationship of the enzyme),[2],0.80
same,% of effectiveness: reduction of active/inactive relationship of MMP-2,[2]; vs control,6%
same,% of effectiveness: reduction of the expression of MMP-2,[3],6%
same,% effectiveness: reduction of the expression of MMP-2 with respect to the control,[4],11%
same,Active/Inactive MMP-2 (active form/inactive form relationship of the enzyme),[5],1.65
same,% effectiveness: reduction of active/inactive relationship of MMP-2,[5]; vs control,Ns
same,Active/Inactive MMP-9 (active form/inactive form relationship of the enzyme),[6],2.38
same,% effectiveness: reduction of active/inactive relationship of MMP-9,[6]; vs control,57%
